Measured values as given in ChEMBL document CHEMBL1221362, “Dialkylaminoalkyl derivatives of bicyclic compounds with antiplasmodial activity” (Bioorg Med Chem, 2010).

Experiments:
[1] = Selectivity index, ratio of IC50 for rat L6 cells to IC50 for Plasmodium falciparum K1; assay type: toxicity, cell-based; details: read-out: Ratio IC50
Plasmodium falciparum = assay: Antiplasmodial activity against Plasmodium falciparum K1 infected in human blood by [3H]hypoxanthine incorporation assay; assay type: functional, organism-based
L6 = assay: Cytotoxicity against rat L6 cells; assay type: cell-based
Mus musculus [2] = assay: Toxicity in albino mouse assessed as mean survival days at 10 mg/kg, ip for 4 days; assay type: organism-based; set-up: dose 10 mg/kg, route intraperitoneal; details: in vivo, 96 h
Mus musculus [3] = assay: Toxicity in albino mouse assessed as mean survival days at 30 mg/kg, ip for 4 days; assay type: organism-based; set-up: dose 30 mg/kg, route intraperitoneal; details: in vivo, 96 h
Plasmodium berghei [4] = assay: Antimalarial activity against Plasmodium berghei ANKA infected in albino mice (Mus musculus) assessed as reduction in parasitemia at 30 mg/kg, intraperitoneal for 4 days; assay type: functional; set-up: scale not given: the % may be the effect or the level left
Plasmodium berghei [5] = assay: Antimalarial activity against Plasmodium berghei ANKA infected in albino mice (Mus musculus) assessed as reduction in parasitemia at 50 mg/kg, intraperitoneal for 4 days; assay type: functional; set-up: scale not given: the % may be the effect or the level left
Mus musculus [6] = assay: Toxicity in albino mouse assessed as mean survival days at 50 mg/kg, ip for 4 days; assay type: organism-based; set-up: dose 50 mg/kg, route intraperitoneal; details: in vivo, 96 h

Row | SMILES | selectivity ratio [1] | IC50 (Plasmodium falciparum) | IC50 (L6) | MSD (Mus musculus [2]) | MSD (Mus musculus [3]) | Activity (Plasmodium berghei [4]) | Activity (Plasmodium berghei [5]) | MSD (Mus musculus [6])
1 | CN(C)C12CCN(C(=O)CCN3CCCCC3)C(C(c3ccccc3)C1)C(c1ccccc1)C2 (racemic) | 120 | 1070 nM | 128 µM |  |  |  |  | 
2 | CCN(CC)CCCC(C)Nc1ccnc2cc(Cl)ccc12 (stereo unspecified) [CHLOROQUINE] |  |  |  | 20 days |  |  |  | 
3 | CCN1CCN(CCN2CCC3(N4CCCC4)CC(c4ccccc4)C2C(c2ccccc2)C3)CC1 (racemic) | 298 | 180 nM | 53.6 µM |  | 7 days | 8.9% |  | 
4 | c1ccc(C2CC3(N4CCCC4)CCN(CCCN4CCCCC4)C2C(c2ccccc2)C3)cc1 (racemic) | 287 | 100 nM | 28.7 µM |  | 7 days | 31% |  | 
5 | C[C@@H]1CC[C@H]2[C@@H](C)C(=O)O[C@@H]3O[C@@]4(C)CC[C@@H]1[C@]32OO4 [ARTEMISININ] |  | 6.4 nM |  |  |  |  |  | 
6 | O=C(CCN1CCCCC1)N1CCC2(N3CCCCC3)CC(c3ccccc3)C1C(c1ccccc1)C2 (racemic) | 336 | 190 nM | 63.9 µM |  |  |  | 36.5% | 6 days
7 | CCN1CCN(CCN2CCC3(N4CCCCC4)CC(c4ccccc4)C2C(c2ccccc2)C3)CC1 (racemic) | 482 | 140 nM | 67.5 µM |  | 7 days | 0% |  | 
8 | CN(C)C12CCN(CCCN3CCCCC3)C(C(c3ccccc3)C1)C(c1ccccc1)C2 (racemic) | 162 | 360 nM | 58.4 µM |  |  |  |  | 
9 | c1ccc(C2CC3(N4CCCC4)CCN(CCN4CCCC4)C2C(c2ccccc2)C3)cc1 (stereo unspecified) | 116 |  |  |  |  |  |  | 
10 | c1ccc(C2CC3(N4CCCCC4)CCN(CCCN4CCCCC4)C2C(c2ccccc2)C3)cc1 (racemic) | 1150 | 120 nM | 138 µM |  |  |  | 30.4% | 8 days
11 | O=C(CCN1CCCCC1)N1CCC2(N3CCCC3)CC(c3ccccc3)C1C(c1ccccc1)C2 (racemic) | 300 | 360 nM | 108 µM |  | 6.7 days | 27.2% |  | 
12 | CCN1CCN(CCN2CCC3(N(C)C)CC(c4ccccc4)C2C(c2ccccc2)C3)CC1 (racemic) | 170 | 340 nM | 58 µM |  |  |  |  | 
13 | CN(C)C12CCN(CCN3CCCC3)C(C(c3ccccc3)C1)C(c1ccccc1)C2 (stereo unspecified) | 136 |  |  |  |  |  |  | 
14 | O=C(CN1CCCC1)NC1CC2(N3CCCCC3)CC(c3ccccc3)C1C(c1ccccc1)C2 (stereo unspecified) | 191 | 110 nM | 21 µM |  |  |  |  | 
